# Data from patent publication US20100311661A1, “USE OF COMPOUNDS DERIVED FROM CYCLOHEXIMIDE FOR THE TREATMENT OR PREVENTION OF, IN PARTICULAR, ISCHAEMIAS AND CARDIOPATHIES” (Max Planck Gesellschaft Zur Forderung Der Wissenschaften …, priority 2007, published 2010).
# Key:
# [1] = test system: Hearts of 9-week-old male rats; parameters: species or system rats (Sprague-Dawley)
# adult cardiomyocytes = assay: Adult cardiomyocytes under hypoxia and subsequent reoxygenation; apoptosis by Guava ViaCount assay; settings: 18 hours hypoxia, 24 hours normoxic; DM-CHX greater than 1 μM; p<0.05
# retinal ganglion cells = settings: in vivo; cited from earlier work
# brain lesions = settings: photothrombotic in vivo model in rats; cited from earlier work
# liver cells of rats = settings: cited from earlier work
SMILES,"size of the infarct, qualitative (TTC colouring, visual) [1]",influence on apoptosis (adult cardiomyocytes),cell death caused by axotomy (retinal ganglion cells),brain lesions triggered by radiation (brain lesions),protection against cell death (liver cells of rats)
C[C@@H]1C[C@@H]([C@H](O)CC2CC(=O)N(CC(=O)N(C)C)C(=O)C2)C(=O)[C@@H](C)C1 [DM-CHX],serious difference in colouring,statistically significant influence,,,
"CC1CC(C)C(=O)C(C(O)CC2CC(=O)NC(=O)C2)C1 (centres unmarked) [CHX, 4-[2-(3,5-dimethyl-2-oxocyclohexyl)-2-hydroxy-ethyl]-2,6-piperidindione]",,,inhibits cell death caused by axotomy,reduces brain lesions,protective property of CHX against cell death has also been demonstrated
